The target of the assay is c-Kit kinase (Homo sapiens (Human), UniProt P10721). Kind of assay: c-Kit biochemical assay (AlphaScreen kinase activity). Put shortly: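 IC50 values come from 8-point, 1:3 compound titrations measuring inhibition of peptide phosphorylation by c-Kit (commercial or His-tagged E. coli-expressed) over 1 h at room temperature, read by AlphaScreen PY30/streptavidin beads. Low-ATP version: 10 μM ATP, 100 nM biotin-(E4Y)3; high-ATP version: 100 μM ATP, 30 nM biotin-(E4Y)10.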
c-Kit kinase, sequence (P10721 26-976): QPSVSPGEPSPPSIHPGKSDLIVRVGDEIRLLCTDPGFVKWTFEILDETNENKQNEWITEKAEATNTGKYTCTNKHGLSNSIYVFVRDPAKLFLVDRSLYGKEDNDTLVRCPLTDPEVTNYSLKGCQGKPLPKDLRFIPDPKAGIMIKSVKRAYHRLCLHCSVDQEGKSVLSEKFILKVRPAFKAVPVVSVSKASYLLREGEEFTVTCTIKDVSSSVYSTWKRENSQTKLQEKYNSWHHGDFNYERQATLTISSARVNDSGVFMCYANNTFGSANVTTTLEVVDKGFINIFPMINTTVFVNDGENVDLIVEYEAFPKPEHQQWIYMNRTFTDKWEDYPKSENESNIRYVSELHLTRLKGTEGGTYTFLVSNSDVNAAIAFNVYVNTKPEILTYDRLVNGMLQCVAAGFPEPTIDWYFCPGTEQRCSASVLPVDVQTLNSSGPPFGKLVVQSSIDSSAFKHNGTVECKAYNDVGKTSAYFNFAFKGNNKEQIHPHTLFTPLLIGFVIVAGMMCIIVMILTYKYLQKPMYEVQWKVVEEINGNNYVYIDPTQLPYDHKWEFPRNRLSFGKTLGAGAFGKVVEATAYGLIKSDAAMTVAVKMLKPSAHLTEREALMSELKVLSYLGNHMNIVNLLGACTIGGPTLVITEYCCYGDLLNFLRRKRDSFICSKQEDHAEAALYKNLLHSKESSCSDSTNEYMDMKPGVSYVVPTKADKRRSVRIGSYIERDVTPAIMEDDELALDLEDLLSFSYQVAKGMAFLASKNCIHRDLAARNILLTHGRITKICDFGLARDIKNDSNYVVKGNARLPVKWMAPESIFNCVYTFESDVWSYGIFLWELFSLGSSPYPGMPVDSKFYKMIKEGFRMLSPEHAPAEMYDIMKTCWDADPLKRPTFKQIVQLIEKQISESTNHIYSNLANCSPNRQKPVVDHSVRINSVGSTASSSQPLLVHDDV
(Alpha assays give light when donor and acceptor beads are brought close together.)
In the case of `COc1cccc(-c2[nH]c(C3(C)CCN(c4ncnc5[nH]c(-c6ccc(N7CCOCC7)nc6)cc45)CC3)nc2C)c1` [P-3223, 4-[5-[4-[4-[5-(3-methoxyphenyl)-4-methyl-1H-imidazol-2-yl]-4-methyl-1-piperidyl]-7H-pyrrolo[2,3-d]pyrimidin-6-yl]-2-pyridyl]morpholine], the 50% inhibitory concentration (IC50) (as a rule, the concentration that gives 50% inhibition) fell in the range of 0.0001 to 1 µM. With `CCOc1ccc(-c2[nH]c(C3(C)CCN(c4ncnc5[nH]c(-c6ccc(OCC(=O)O)cc6)cc45)CC3)nc2C)cc1` [P-3224, 2-[4-[4-[4-[5-(4-ethoxyphenyl)-4-methyl-1H-imidazol-2-yl]-4-methyl-1-piperidyl]-7H-pyrrolo[2,3-d]pyrimidin-6-yl]phenoxy]acetic acid], the concentration for half-maximal inhibition (IC50) fell in the range of 0.0001 to 1 µM. Regarding `COc1cccc(-c2[nH]c(C3(C)CCN(c4ncnc5[nH]c(-c6ccc(C(N)=O)cc6)cc45)CC3)nc2C)c1` [P-3225, 4-[4-[4-[5-(3-methoxyphenyl)-4-methyl-1H-imidazol-2-yl]-4-methyl-1-piperidyl]-7H-pyrrolo[2,3-d]pyrimidin-6-yl]benzamide], the IC50 lay within 0.0001 to 1 µM.

In turn, `CCOc1ccc(-c2[nH]c(C3(C)CCN(c4ncnc5[nH]c(-c6ccc(C(=O)NC)nc6)cc45)CC3)nc2C)cc1` [P-3226, 5-[4-[4-[5-(4-ethoxyphenyl)-4-methyl-1H-imidazol-2-yl]-4-methyl-1-piperidyl]-7H-pyrrolo[2,3-d]pyrimidin-6-yl]-N-methyl-pyridine-2-carboxamide] displayed an IC50 of 0.0001 to 1 µM.

As for `CCOc1ccc(-c2[nH]c(C3(C)CCN(c4ncnc5[nH]c(-c6ccc(N7CCOCC7)nc6)cc45)CC3)nc2C)cc1` [P-3227, 4-[5-[4-[4-[5-(4-ethoxyphenyl)-4-methyl-1H-imidazol-2-yl]-4-methyl-1-piperidyl]-7H-pyrrolo[2,3-d]pyrimidin-6-yl]-2-pyridyl]morpholine], the IC50 is 0.0001 to 1 µM. For `COc1ccc(-c2[nH]c(C3(C)CCN(c4ncnc5[nH]c(-c6ccc(NS(C)(=O)=O)cc6)cc45)CC3)nc2C)cc1C` [P-3228, N-[4-[4-[4-[5-(4-methoxy-3-methyl-phenyl)-4-methyl-1H-imidazol-2-yl]-4-methyl-1-piperidyl]-7H-pyrrolo[2,3-d]pyrimidin-6-yl]phenyl]methanesulfonamide] the value was 0.0001 to 1 µM; for `CCOc1ccc(-c2[nH]c(C3(C)CCN(c4ncnc5[nH]c(-c6ccc(C(N)=O)cc6)cc45)CC3)nc2C)cc1` [P-3229, 4-[4-[4-[5-(4-ethoxyphenyl)-4-methyl-1H-imidazol-2-yl]-4-methyl-1-piperidyl]-7H-pyrrolo[2,3-d]pyrimidin-6-yl]benzamide], 0.0001 to 1 µM. Take `CCOc1ccc(-c2[nH]c(C3(C)CCN(c4ncnc5[nH]c(-c6ccc(NS(C)(=O)=O)cc6)cc45)CC3)nc2C)cc1` [P-3230, N-[4-[4-[4-[5-(4-ethoxyphenyl)-4-methyl-1H-imidazol-2-yl]-4-methyl-1-piperidyl]-7H-pyrrolo[2,3-d]pyrimidin-6-yl]phenyl]methanesulfonamide]: the IC50 lay in the range of 0.0001 to 1 µM. For `Cc1nc(C2(C)CCN(c3ncnc4[nH]c(-c5ccc(C(N)=O)cc5)cc34)CC2)[nH]c1-c1cccc(OC(F)F)c1` [P-3231, 4-[4-[4-[5-[3-(difluoromethoxy)phenyl]-4-methyl-1H-imidazol-2-yl]-4-methyl-1-piperidyl]-7H-pyrrolo[2,3-d]pyrimidin-6-yl]benzamide] the value was 0.0001 to 1 µM. For `Cc1nc(C2(C)CCN(c3ncnc4[nH]c(-c5ccc(NS(C)(=O)=O)cc5)cc34)CC2)[nH]c1-c1cccc(OC(F)F)c1` [P-3232, N-[4-[4-[4-[5-[3-(difluoromethoxy)phenyl]-4-methyl-1H-imidazol-2-yl]-4-methyl-1-piperidyl]-7H-pyrrolo[2,3-d]pyrimidin-6-yl]phenyl]methanesulfonamide] the value was 0.0001 to 1 µM; for `Cc1nc(C2(C)CCN(c3ncnc4[nH]c(-c5ccc(OCC(=O)O)cc5)cc34)CC2)[nH]c1-c1cccc(OC(F)F)c1` [P-3233, 2-[4-[4-[4-[5-[3-(difluoromethoxy)phenyl]-4-methyl-1H-imidazol-2-yl]-4-methyl-1-piperidyl]-7H-pyrrolo[2,3-d]pyrimidin-6-yl]phenoxy]acetic acid], 0.0001 to 1 µM. For `COc1cccc(-c2[nH]c(C3(C)CCN(c4ncnc5[nH]c(-c6ccc(NS(C)(=O)=O)cc6)cc45)CC3)nc2C)c1` [P-3234, N-[4-[4-[4-[5-(3-methoxyphenyl)-4-methyl-1H-imidazol-2-yl]-4-methyl-1-piperidyl]-7H-pyrrolo[2,3-d]pyrimidin-6-yl]phenyl]methanesulfonamide] the value was 0.0001 to 1 µM; for `CNC(=O)c1ccc(-c2cc3c(N4CCC(C)(c5nc(C)c(-c6ccc(C(F)F)cc6)[nH]5)CC4)ncnc3[nH]2)cn1` [P-3235, 5-[4-[4-[5-[4-(difluoromethyl)phenyl]-4-methyl-1H-imidazol-2-yl]-4-methyl-1-piperidyl]-7H-pyrrolo[2,3-d]pyrimidin-6-yl]-N-methyl-pyridine-2-carboxamide], 0.0001 to 1 µM; for `CNC(=O)c1ccc(-c2cc3c(N4CCC(C)(c5nc(C)c(-c6cccc(OC(F)F)c6)[nH]5)CC4)ncnc3[nH]2)cn1` [P-3236, 5-[4-[4-[5-[3-(difluoromethoxy)phenyl]-4-methyl-1H-imidazol-2-yl]-4-methyl-1-piperidyl]-7H-pyrrolo[2,3-d]pyrimidin-6-yl]-N-methyl-pyridine-2-carb oxamide], 0.0001 to 1 µM. In turn, `Cc1nc(C2(C)CCN(c3ncnc4[nH]c(-c5ccc(N6CCOCC6)nc5)cc34)CC2)[nH]c1-c1ccc(C(F)F)cc1` [P-3237, 4-[5-[4-[4-[5-[4-(difluoromethyl)phenyl]-4-methyl-1H-imidazol-2-yl]-4-methyl-1-piperidyl]-7H-pyrrolo[2,3-d]pyrimidin-6-yl]-2-pyridyl]morpholine] gave a 50% inhibitory concentration (IC50) of 0.0001 to 1 µM.

On to `Cc1nc(C2(C)CCN(c3ncnc4[nH]c(-c5ccc(N6CCOCC6)nc5)cc34)CC2)[nH]c1-c1cccc(OC(F)F)c1` [P-3238, 4-[5-[4-[4-[5-[3-(difluoromethoxy)phenyl]-4-methyl-1H-imidazol-2-yl]-4-methyl-1-piperidyl]-7H-pyrrolo[2,3-d]pyrimidin-6-yl]-2-pyridyl]morpholine], for which the IC50 is 0.0001 to 1 µM. For `Cc1nc(C2(C)CCN(c3ncnc4[nH]c(-c5ccc(C(N)=O)cc5)cc34)CC2)[nH]c1-c1ccc(C(F)F)cc1` [P-3239, 4-[4-[4-[5-[4-(difluoromethyl)phenyl]-4-methyl-1H-imidazol-2-yl]-4-methyl-1-piperidyl]-7H-pyrrolo[2,3-d]pyrimidin-6-yl]benzamide] the value was 0.0001 to 1 µM; for `Cc1nc(C2(C)CCN(c3ncnc4[nH]c(-c5ccc(OCC(=O)O)cc5)cc34)CC2)[nH]c1-c1ccc(C(F)F)cc1` [P-3240, 2-[4-[4-[4-[5-[4-(difluoromethyl)phenyl]-4-methyl-1H-imidazol-2-yl]-4-methyl-1-piperidyl]-7H-pyrrolo[2,3-d]pyrimidin-6-yl]phenoxy]acetic acid], 0.0001 to 1 µM.

For the compound `Cc1nc(C2(C)CCN(c3ncnc4[nH]c(-c5ccc(OCC(=O)O)cc5)cc34)CC2)[nH]c1-c1ccc(OC(F)F)cc1` [P-3241, 2-[4-[4-[4-[5-[4-(difluoromethoxy)phenyl]-4-methyl-1H-imidazol-2-yl]-4-methyl-1-piperidyl]-7H-pyrrolo[2,3-d]pyrimidin-6-yl]phenoxy]acetic acid], the IC50 lay within 0.0001 to 1 µM. For `Cc1nc(C2(C)CCN(c3ncnc4[nH]c(-c5cnn(C(F)F)c5)cc34)CC2)[nH]c1-c1ccc(OC(F)F)cc1` [P-3242, 4-[4-[5-[4-(difluoromethoxy)phenyl]-4-methyl-1H-imidazol-2-yl]-4-methyl-1-piperidyl]-6-[1-(difluoromethyl)pyrazol-4-yl]-7H-pyrrolo[2,3-d]pyrimidine] the value was 0.0001 to 1 µM. For `CCOc1ccc(-c2[nH]c(C3(C)CCN(c4ncnc5[nH]c(-c6ccc(C(N)=O)cc6)cc45)CC3)nc2C)cc1C` [P-3243, 4-[4-[4-[5-(4-ethoxy-3-methyl-phenyl)-4-methyl-1H-imidazol-2-yl]-4-methyl-1-piperidyl]-7H-pyrrolo[2,3-d]pyrimidin-6-yl]benzamide] the value was 0.0001 to 1 µM.

`CCOc1ccc(-c2[nH]c(C3(C)CCN(c4ncnc5[nH]c(-c6ccc(OCC(=O)O)cc6)cc45)CC3)nc2C)cc1C` [P-3244, 2-[4-[4-[4-[5-(4-ethoxy-3-methyl-phenyl)-4-methyl-1H-imidazol-2-yl]-4-methyl-1-piperidyl]-7H-pyrrolo[2,3-d]pyrimidin-6-yl]phenoxy]acetic acid] came in with an IC50 of 0.0001 to 1 µM. For `CCOc1ccc(-c2[nH]c(C3(C)CCN(c4ncnc5[nH]c(-c6cnn(C(F)F)c6)cc45)CC3)nc2C)cc1C` [P-3245, 6-[1-(difluoromethyl)pyrazol-4-yl]-4-[4-[5-(4-ethoxy-3-methyl-phenyl)-4-methyl-1H-imidazol-2-yl]-4-methyl-1-piperidyl]-7H-pyrrolo[2,3-d]pyrimidine] the value was 0.0001 to 1 µM; for `CNC(=O)c1ccc(-c2cc3c(N4CCC(C)(c5nc(C)c(-c6ccc(OC(F)F)cc6)[nH]5)CC4)ncnc3[nH]2)cn1` [P-3246, 5-[4-[4-[5-[4-(difluoromethoxy)phenyl]-4-methyl-1H-imidazol-2-yl]-4-methyl-1-piperidyl]-7H-pyrrolo[2,3-d]pyrimidin-6-yl]-N-methyl-pyridine-2-carb oxamide], 0.0001 to 1 µM. As to `CCOc1ccc(-c2[nH]c(C3(C)CCN(c4ncnc5[nH]c(-c6ccc(C(=O)NC)nc6)cc45)CC3)nc2C)cc1C` [P-3247, 5-[4-[4-[5-(4-ethoxy-3-methyl-phenyl)-4-methyl-1H-imidazol-2-yl]-4-methyl-1-piperidyl]-7H-pyrrolo[2,3-d]pyrimidin-6-yl]-N-methyl-pyridine-2-carb oxamide], the IC50 lay in the range of 0.0001 to 1 µM. For `Cc1nc(C2(C)CCN(c3ncnc4[nH]c(-c5ccc(N6CCOCC6)nc5)cc34)CC2)[nH]c1-c1ccc(OC(F)F)cc1` [P-3248, 4-[5-[4-[4-[5-[4-(difluoromethoxy)phenyl]-4-methyl-1H-imidazol-2-yl]-4-methyl-1-piperidyl]-7H-pyrrolo[2,3-d]pyrimidin-6-yl]-2-pyridyl]morpholine] the value was 0.0001 to 1 µM.

The values above are taken from patent publication US9771369B2, “Compounds and methods for kinase modulation, and indications therefor” (Plexxikon Inc., priority 2014, dated 2017).
